These results are taken from patent US6491894B1, “NGR receptor and methods of identifying tumor homing molecules that home to angiogenic vasculature using same” (The Burnham Institute, priority 1998, dated 2002).

Series [1] relates to MDA-MB-435 derived tumors. Nature of the series: In vivo targeting of phage to breast carcinoma xenografts (phage recovery). Details: species or system mouse; inhibition of CGSLVRC phage tumor homing by soluble peptide: dose or concentration left out as unconfirmed. To be noted: for reduction of the amount of phage in the tumor by coinjection of free peptide: 500 μg free peptide coinjected with RGD-4C phage; for inhibition of tumor homing of CNGRCVSGCAGRC (NGR) phage by co-injected soluble peptide: breast carcinoma xenografts; for inhibition of tumor homing of RGD-4C phage by co-injected soluble peptide: increasing amounts of peptide. As to the method: When the tumors attained a diameter of about 1 cm, phage expressing a specific RGD-containing peptide were administered to the tumor bearing mouse. Similar results to those discussed below also were obtained with nude mice bearing tumors formed by implantation of human melanoma C8161 cells or by implantation of mouse B16 melanoma cells.
1×10^9 phage expressing the RGD-containing peptide, RGD-4C ([…]; SEQ ID NO:1; see, Koivunen et al., supra, 1995) or control (insertless) phage were injected intravenously (iv) into the mice and allowed to circulate for 4 min. The mice then were snap frozen or perfused through the heart while under anesthesia, and various organs, including tumor, brain and kidney, were removed and the phage present in the organs was quantitated (see U.S. Pat. No. 5,622,699; Pasqualini and Ruoslahti, supra, 1996).
Phage displaying tumor homing peptides were recovered from breast carcinoma xenografts. […] The mean number of phage recovered from the tumor or control tissue (brain) and the standard error of the mean (SEM) from triplicate platings are shown in FIG. 1.
An insertless phage with a different selective marker (ampicillin instead of tetracycline) was co-injected with the NGR phage at the same input to assess specificity within the same tumor-bearing animal. The ratios were calculated using the number of co-injected control ampicillin-resistant phage recovered from the same tissues. The phage were quantitated from triplicate platings on tetracycline (the homing phage) or ampicillin (control phage) selective plates. Various additional control phage were injected separately into tumor-bearing mice. These controls included: fd-tet phage without insert; unselected phage library mixtures; phage selected and shown to home to other normal vascular beds; and phage displaying peptides that were unrelated to NGR. The RGD-4C ([…]; SEQ ID NO:1) phage served as a positive control.

The target in series [2] is T1, CD13/APN (Homo sapiens, UniProt P15144).
T1 construct: Experiments were performed using HL-60 cell extracts because they are known to express CD13/APN; endogenous in cells; host or cells: HL-60 cells (extract)
T1 sequence (P15144 whole entry): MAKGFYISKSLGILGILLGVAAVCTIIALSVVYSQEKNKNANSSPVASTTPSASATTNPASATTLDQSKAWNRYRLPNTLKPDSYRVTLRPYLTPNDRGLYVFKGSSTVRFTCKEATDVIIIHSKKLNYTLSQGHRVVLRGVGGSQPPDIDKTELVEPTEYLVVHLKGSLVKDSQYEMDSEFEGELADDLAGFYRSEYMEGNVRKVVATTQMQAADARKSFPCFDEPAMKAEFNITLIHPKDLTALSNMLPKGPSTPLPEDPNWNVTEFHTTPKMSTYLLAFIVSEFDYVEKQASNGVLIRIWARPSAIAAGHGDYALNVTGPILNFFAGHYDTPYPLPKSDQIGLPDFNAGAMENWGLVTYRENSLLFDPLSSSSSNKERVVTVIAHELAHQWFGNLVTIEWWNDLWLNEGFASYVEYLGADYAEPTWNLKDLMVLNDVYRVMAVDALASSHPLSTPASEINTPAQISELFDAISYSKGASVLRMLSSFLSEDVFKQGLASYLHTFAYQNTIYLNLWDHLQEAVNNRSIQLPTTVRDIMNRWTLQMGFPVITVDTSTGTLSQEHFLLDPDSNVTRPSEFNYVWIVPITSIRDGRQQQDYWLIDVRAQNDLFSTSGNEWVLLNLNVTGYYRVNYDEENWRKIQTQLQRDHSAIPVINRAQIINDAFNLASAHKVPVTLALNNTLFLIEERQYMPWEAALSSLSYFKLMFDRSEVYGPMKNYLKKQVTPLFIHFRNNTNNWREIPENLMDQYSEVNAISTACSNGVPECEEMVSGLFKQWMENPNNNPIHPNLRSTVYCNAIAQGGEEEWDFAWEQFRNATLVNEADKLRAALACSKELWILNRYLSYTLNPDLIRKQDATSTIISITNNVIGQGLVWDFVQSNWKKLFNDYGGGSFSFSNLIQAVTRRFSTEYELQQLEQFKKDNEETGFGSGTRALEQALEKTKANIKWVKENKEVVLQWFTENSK
Nature of the series: Affinity chromatography of cell extracts on immobilized peptide. The format is binding. As to the method: To further characterize the interaction of CD13/APN with the NGR peptide, affinity chromatography on the CNGRC peptide was performed. The column was prepared by coupling the CNGRC peptide to SEPHAROSE (Pharmacia; Piscataway N.J.). Elution was effected with soluble CNGRC peptide. […] Extracts of Molt-4 and MDA-MB-435 cells transfected with CD13/APN were also characterized by using affinity chromatography, with extracts of the mock transfected counterparts used as negative controls.
The fractions were also analyzed for CD13 enzymatic activity using AlapNA as the substrate.

The test system of series [3] is B16B15b mouse melanoma. Nature of the series: In vivo panning against a melanoma tumor. To be noted: 89 cloned phage recovered from B16B15b tumors, three rounds. As to the method:
Mice bearing a melanoma were produced by implantation of B16B15b mouse melanoma cells, which produce highly vascularized tumors. B16B15b mouse melanoma cells were injected subcutaneously into the mammary fat pad of nude mice (2 months old) and tumors were allowed to grow until the diameter was about 1 cm. In vivo panning was performed as disclosed above. Approximately 1×10^12 transducing units of phage expressing the CX5C (SEQ ID NO:9), CX6C (SEQ ID NO:10) or CX7C (SEQ ID NO:11) library were injected, iv, and allowed to circulate for 4 min. Mice then were snap frozen in liquid nitrogen or perfused through the heart while under anesthesia, tumor tissue and brain (control organ) were removed, and phage were isolated as described above. Three rounds of in vivo panning were performed.
The amino acid sequences were determined for the inserts in 89 cloned phage recovered from the B16B15b tumors. The peptides expressed by these phage were represented by two predominant sequences, […] (SEQ ID NO:4; 52% of the clones sequenced) and WGTGLC (SEQ ID NO:18; 25% of the clones; see Table 2).

Series [4] relates to breast tumor. The series is described as follows: Viability of tumor cells obtained from tumors of treated mice. To be noted: 30 μg equivalent iv, tumors removed five days after treatment. Format: in vivo, mouse. As to the method: In addition, the viability of tumor cells obtained from tumors of mice treated with a tumor homing peptide/doxorubicin conjugate was compared to that of tumors from mice treated with free doxorubicin. In these experiments, breast tumor bearing mice were size matched with regard to the tumors, then treated intravenously with 30 μg equivalent of doxorubicin/RGD-4C ([…]; SEQ ID NO:1) or of free doxorubicin. Five days after treatment, the mice were euthanized and the tumors were removed. The tumor pairs were weighed and ground and the cell suspensions were plated (2 g tumor tissue per 150 mm plate).
Cell numbers were determined at 24 hours and 7 days after plating. Viability of tumor cells from the tumors of mice receiving the doxorubicin/RGD-4C ([…]; SEQ ID NO:1) conjugate was about 3 fold less than cells from tumors of mice treated with the free doxorubicin.

In series [5] the test system is MDA-MB-435 breast carcinoma. Nature of the series: Tumor therapy of mice bearing MDA-MB-435 breast carcinoma. The format is in vivo, mouse. The protocol:
Female 2-month old Balb c nu/nu mice (Harlan Sprague Dawley; San Diego Calif.) were used for these studies and were cared for according to the Burnham Institute animal facility guidelines. […] Tumors were allowed to grow to a size of about 1 cm^3 (about 5% of the mouse's body weight) before starting the treatment experiments, except for the toxicity experiments as discussed below.
Weekly doxorubicin/peptide conjugate or control treatments (5 μg/mouse/week of doxorubicin-equivalent) were administered intravenously. In some experiments, as indicated, a dose of 30 μg/mouse was administered every 3 weeks. […] As an additional control, in some experiments the tumor homing peptide was mixed with doxorubicin, without linking, and the mixture was administered to tumor bearing mice.
Mice were anesthetized with a tribromoethanol-based anesthetic mixture (AVERTIN; Papaioannou and Fox, Lab. Anim. 43:189-192 (1993)) before each treatment. Anesthetization facilitated the tail vein injections (final volume, 200 μl) and allowed precise serial three dimensional tumor size measurements. Tumor volume calculations were based on the equation for the volume of an ovaloid: V=4/3(nabc), where a, b, and c are ½ of the measured diameters in each of the three dimensions.
Briefly, mice with size-matched tumors (˜1000 mm^3) were randomized into four treatment groups (six animals per group): vehicle only, free doxorubicin, doxorubicin-control peptide, and doxorubicin-CNGRC (SEQ ID NO:8). Mice were treated at 5 μg/mouse/week of doxorubicin-equivalent, and the difference in tumor volumes between day 1 and day 28 determined (FIG. 11A).

Series [6] relates to MDA-MB-435 human breast carcinoma cells. To be noted: for cell killing when agents not removed: after 24 hr.
Protocol: (SEQ ID NO:19; control) conjugate (0.1 to 10 μg/well of doxorubicin-equivalent) for either 30 min or overnight. Following incubation, the agents were removed by extensive washing with PBS, then fresh medium added and incubation was continued.
For series [7], the system named is MDA-MB-435 breast carcinoma. The series is described as follows: Tumor therapy of mice bearing MDA-MB-435 breast carcinoma. Format: in vivo. To be noted: 5 μg/mouse/week doxorubicin-equivalent.
Series [8] is described as follows: Acute toxicity in mice bearing extremely large tumors. To be noted: 200 μg/mouse, tumors about 25% of body weight.
The subject of series [9] is human αv-integrins. To be noted: cited from earlier work.
Series [10] deals with T2, CD13 (Gallus gallus, UniProt O57579).
T2 construct: CD13 is expressed in CAM angiogenic vasculature; from tissue; host or cells: chorioallantoic membrane of 10-day chicken embryos
T2 sequence (O57579 1-972): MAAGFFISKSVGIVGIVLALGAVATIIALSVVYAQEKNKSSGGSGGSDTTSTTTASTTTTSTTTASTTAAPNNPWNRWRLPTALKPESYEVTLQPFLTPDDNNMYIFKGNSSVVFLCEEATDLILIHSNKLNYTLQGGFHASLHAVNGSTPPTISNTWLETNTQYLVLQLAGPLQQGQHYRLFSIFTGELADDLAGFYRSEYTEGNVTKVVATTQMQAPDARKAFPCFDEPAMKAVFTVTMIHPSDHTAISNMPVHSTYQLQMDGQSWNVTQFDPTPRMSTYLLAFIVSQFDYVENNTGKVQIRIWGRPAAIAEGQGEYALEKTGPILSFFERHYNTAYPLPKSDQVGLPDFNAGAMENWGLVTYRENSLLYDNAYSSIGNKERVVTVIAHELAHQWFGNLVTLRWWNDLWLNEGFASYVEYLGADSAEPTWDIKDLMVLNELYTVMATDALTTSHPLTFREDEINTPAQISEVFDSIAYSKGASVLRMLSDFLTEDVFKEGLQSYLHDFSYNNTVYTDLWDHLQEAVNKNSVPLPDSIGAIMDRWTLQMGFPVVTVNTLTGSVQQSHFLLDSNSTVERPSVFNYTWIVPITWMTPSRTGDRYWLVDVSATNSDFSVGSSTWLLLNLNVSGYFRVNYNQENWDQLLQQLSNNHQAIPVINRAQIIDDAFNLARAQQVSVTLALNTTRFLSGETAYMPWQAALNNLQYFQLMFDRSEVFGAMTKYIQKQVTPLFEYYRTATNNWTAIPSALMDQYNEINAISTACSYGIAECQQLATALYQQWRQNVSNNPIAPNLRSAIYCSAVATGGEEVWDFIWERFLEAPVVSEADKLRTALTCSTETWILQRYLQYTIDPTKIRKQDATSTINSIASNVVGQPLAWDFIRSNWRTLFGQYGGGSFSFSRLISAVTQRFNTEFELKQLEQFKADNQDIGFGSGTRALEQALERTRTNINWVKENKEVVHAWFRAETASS
The series is described as follows: bFGF-induced angiogenesis in chicken chorioallantoic membrane (CAM). Format: in vivo. To be noted: topical, 3 days. The text has this:
Various treatments were applied topically, and, after 3 days, the filters and surrounding CAMs were resected and fixed in formalin.
Each bar represents the mean number of vessels and standard errors from 8 CAMs on each group.

The target of series [11] is CD13/aminopeptidase N (Homo sapiens, UniProt P15144). To be noted: cited from earlier work.
Sequence of CD13/aminopeptidase N (P15144 whole entry): as the sequence (P15144 whole entry) above
[12] abbreviates: 5 μg/mouse/week doxorubicin-equivalent iv.

Where no end group is shown, it is not given here.

On to CGSLVRC, for which the “inhibition of CGSLVRC phage tumor homing by soluble peptide” value in [1] is given as “inhibition of tumor homing”.

Turning to `O=c1[nH]cc(F)c(=O)[nH]1` [CARAC], the “CD13/APN obtained by affinity chromatography on immobilized peptide” value in series [2] is given as “yielded no CD13/APN”. Also, the “elution of CD13/APN from the CNGRC column by soluble peptide” value in series [2] (Molt-4/CD13, MDA-MB-435/CD13 or HL-60 cell extracts) is “did not elute any activity”.

With WGTGLC, the “share of the clones sequenced” value in series [3] was found to be 25%.

In the case of CLSGSLSC, the “share of the clones sequenced” value in [3] was determined as 52%.

ACDCRGDCFCG: the “reduction of the amount of phage in the tumor by coinjection of free peptide” value in [1] is “about tenfold”.

Turning to “doxorubicin/RGD-4C: doxorubicin conjugated to peptide CDCRGDCFC (SEQ ID NO:1) (cysteine pairing not given here; also: doxorubicin conjugate)”, in series [4], the “viability of tumor cells, less than cells from tumors of mice treated with free doxorubicin” value is “about 3 fold”. For the same compound, in series [5] (setting [12]), the pulmonary metastasis result is “a lower incidence of pulmonary metastasis and fewer metastatic lesions”; the “spread to regional lymph nodes” value is recorded as “less spread to regional lymph nodes”; the survival entry was “survived beyond the time when the doxorubicin control and conjugate control mice had died”; the “tumor size versus doxorubicin control” value was “significantly smaller tumors”. Further, the “time alive after control mice had died” value in series [5] (dose escalation, 30 μg/mouse every three weeks for three cycles) is reported as “more than 6 months”. Besides, the “histopathological analysis of tumor vasculature” value in series [5] (mouse, in vivo) is listed as “pronounced destruction of the vasculature”. The “cell death after 30 min exposure” value in series [6] (0.1 to 10 μg/well doxorubicin-equivalent, agents removed after 30 min, survival at 24 hours) is recorded as “cell death was present”. In addition, in series [6], the “cell killing when agents not removed” value is on record as “cells were killed”. Also, in series [7], the “gross examination of tumors (skin ulceration and tumor necrosis)” value was “marked skin ulceration and tumor necrosis”. Also, the “survival after acute dose” value in series [8] is given as “survived for longer than one week”.

In the case of `COc1cccc2c1C(=O)c1c(O)c3c(c(O)c1C2=O)C[C@@](O)(C(=O)CO)C[C@@H]3O[C@H]1C[C@H](N)[C@H](O)[C@H](C)O1` [doxorubicin, reference compound], in [5] (relative to vehicle alone), the “effect on tumor growth” value is “essentially no effect on tumor growth”. For the same compound, in series [6], the “cell killing when agents not removed” value is recorded as “cells were killed”. For the same compound, the “gross examination of tumors (skin ulceration and tumor necrosis)” value in series [7] is reported as “no such signs were observed”.

In the case of “GACVFSIAHECGA (not fully specified (bridges); also: cyclic, ring type not given here) [unrelated cyclic control peptide, reference compound]”, in [1], the “inhibition of tumor homing of CNGRCVSGCAGRC (NGR) phage by co-injected soluble peptide” value was “had no effect” and the “inhibition of tumor homing of RGD-4C phage by co-injected soluble peptide” value is given as “had no effect”.

For GRGESP [reference compound], the “reduction of the amount of phage in the tumor by coinjection of free peptide” value in series [1] is given as “essentially had no effect”.

CDCRGDCFC [RGD-4C]: in [1], the “inhibition of tumor homing of CNGRCVSGCAGRC (NGR) phage by co-injected soluble peptide” value is on record as “partially inhibited” and the “inhibition of tumor homing of RGD-4C phage by co-injected soluble peptide” value was “readily inhibited”. The “potency in inhibiting NGR phage tumor homing, less potent than the CNGRC peptide” value in series [1] (mouse, in vivo) is 5-10 times. The “binding to αv-integrins” value in series [9] is recorded as “binds to human αv-integrins”.

Turning to `CCCCC[C@H](CC(=O)NO)C(=O)N[C@H](C(=O)N1CCC[C@H]1CO)C(C)C` [actinonin], the “effect on bFGF-induced angiogenesis in CAM” value in series [10] is given as “suppress bFGF-induced angiogenesis”. Further, in [11], the “block of cell-surface CD13/aminopeptidase N enzymatic activity” value is “potently blocked”.
